In patent US8999419B2, “Enhancement of potato tuber sprouting inhibitors using various combinations of agents” (Washington State University, priority 2010, dated 2015):

Columns and labels:
[1] = tested on: 'Ranger Russet' tubers; experiment: Days to average sprout length of 10 mm, 3-decen-2-one followed by CIPC; format: in vivo, potato
Experimental: The study used CIPC to extend the sprout-free period following an application of 3-decen-2-one or 2-decanone after sprouting occurs. Protocol.
(§1) This study, as described, used 3-decen-2-one (3D2). The study was duplicated as described with 2-decanone in place of 3D2. Tubers were stored at 9° C. until they emerged from dormancy (when 75% of the sample tubers are peeping, and the longest sprouts are no longer than 4 mm). At this time, 3-decen-2-one was applied at 0.75, 0.50, or 0.25 mmol/kg to ‘burn off’ growing sprouts. Each of these treatments was followed by applications of 1, 0.73, 0.47 or 0.20% a.i. of CIPC EC. The label rate of CIPC EC is 1% a.i. and results in a 10 mg/kg fresh wt application when applied as directed. Sprout measurements were obtained every two weeks. The length of the longest sprout on each tuber was recorded. The average length of the longest sprout was plotted over time for each treatment combination. The days to 10 mm were estimated from the second linear regression line of each element. Positive control treatments included the three rates of 3D2 alone and four post-sprouting concentrations of CIPC alone. The standard control treatment consisted of non-treated tubers.

[2] = tested on: 'Ranger Russet' tubers; experiment: Days to average sprout length of 10 mm, 2-decanone followed by CIPC; format: in vivo, potato
Experimental: as §1

[3] = tested on: Russet Burbank potato tubers; experiment: Sprout-free interval after CIPC and trans-2-nonenal, alone or in sequence; format: in vivo; settings: CIPC 20 mg/kg; T2N 0.75 mmol/kg; applied at 151 DAH; tubers stored at 9° C.
Experimental: FIGS. 2A and B. Treatment with combination of T2N and CIPC. A, sprout growth in “Russet Burbank” tubers treated as indicated with CIPC, trans-2-nonenal, or trans-2-nonenal and CIPC in sequence; fresh weight of sprouts (g/tuber) at the indicated time points. CIPC, 20 mg/kg; T2N, 0.75 mmol/kg; B, photo of tubers.
Following the emergence of Russet Burbank potato tubers from dormancy, CIPC and trans-2-nonenal were applied either alone or sequentially as indicated in FIG. 2A. All treatments were applied at 151 days after harvest (DAH). Sprout control was considered to end when one third of the tubers in the sample produced a sprout mass of greater than 50 mg/tuber or when the mean of the total sample exceeded 1 g/tuber. When both CIPC and trans-2-nonenal were used, the sprout-free interval of the tubers stored at 9° C. […] In this study, the application of CIPC was unconventional in that it occurred when tubers were beginning to sprout, as opposed to the window between wound healing and sprouting. CIPC provided additional sprout control on tubers whose actively growing sprouts were initially terminated by trans-2-nonenal, i.e. when used in combination with trans-2-nonenal. Trans-2-nonenal thus expands the window of opportunity for application of CIPC and this invention can therefore be useful to reduce the application rate and residues of CIPC.

[4] = tested on: Russet Burbank tubers; experiment: Sprout fresh weight after 24 h chamber treatment with 3N2 and 2-nonanone mixtures; format: in vivo, potato; settings: treated 24 h, 21 days at 22° C.
Experimental: FIG. 1. Effects of 3-nonen-2-one (3N2) in various combinations with 2-nonanone on sprouting of Russet Burbank tubers. The compounds were applied as described in Example 1. Tubers were treated for 24 h, removed from treatment chambers, and placed at 22° C. to sprout for 3 weeks. Sprout fresh weight is expressed as a percentage of control (non-treated), which were 100% sprouted.
The objective of this study was to determine the efficacy of mixtures of 3N2 and its metabolite, 2-nonanone, on sprout inhibition. Potato tubers were treated for 24 h in a closed chamber. The chemicals were volatilized from filter paper inside the chamber. Treatment was with 0 to 0.75 mmol/kg of 3N2 combined factorially with 0 to 0.75 mmol/kg of 2-nonanone. The treated tubers were placed at 22° C. and sprout fresh weights were measured 21 days after treatment. Sprout growth from tubers treated with 0.5 and 0.75 mmol/kg 2-nonanone averaged 58% of non-treated tubers, compared with 9% for […] applied alone (FIG. 1).

[5] = 116 mg kg-1 rate, no subsequent treatment with CIPC

`CCCCCCC=CC(C)=O` [3D2, 3-decen-2-one] was tested, and the “Control before sprouting re-occurred” value ([1]; 0.25 mmol/kg rate) was “approximately 1 month”, the “Days of control following application” value [1, 5] was 58 days and the “Days to 10 mm Actual” value ([1]; 3D2 39 mg kg-1 fresh wt alone (CIPC 0)) was 38 days. The “Days to 10 mm Actual” value ([1]; 3D2 77 mg kg-1 fresh wt alone (CIPC 0)) was 40 days and the “Days to 10 mm Actual” value ([1]; 3D2 116 mg kg-1 fresh wt alone (CIPC 0)) was 57 days.
For `CCCCCCCCC(C)=O` [2-decanone], the “Control before sprouting re-occurred” value ([2]; 0.25 mmol/kg rate) was “approximately 1 month”, the “Days of control following application” value [2, 5] was 50 days and the “Days to 10 mm Actual” value ([2]; 2-decanone 39 mg kg-1 fresh wt alone (CIPC 0)) was 34 days. The “Days to 10 mm Actual” value ([2]; 2-decanone 77 mg kg-1 fresh wt alone (CIPC 0)) was 42 days and the “Days to 10 mm Actual” value ([2]; 2-decanone 116 mg kg-1 fresh wt alone (CIPC 0)) was 49 days.
With `CCCCCC/C=C/C=O` [trans-2-nonenal] the Sprout-free interval [3] was 155 days.
In the case of `CC(C)OC(=O)Nc1cccc(Cl)c1` [CIPC, chlorpropham, reference compound], the Sprout-free interval [3] is reported as 124 days, the “Days to 10 mm Actual” value ([2]; CIPC 2.0 mg kg-1 fresh wt alone (2-decanone 0), Table 2 study) is reported as 85 days and the “Days to 10 mm Actual” value ([2]; CIPC 4.7 mg kg-1 fresh wt alone (2-decanone 0), Table 2 study) is reported as 113 days. For the same compound, the “Days to 10 mm Actual” value ([2]; CIPC 7.3 mg kg-1 fresh wt alone (2-decanone 0), Table 2 study) was 110 days, the “Days to 10 mm Actual” value ([2]; CIPC 10 mg kg-1 fresh wt alone (2-decanone 0), Table 2 study) was 112 days and the “Days to 10 mm Actual” value ([1]; CIPC 2.0 mg kg-1 fresh wt alone (3D2 0), Table 1 study) was 51 days. The “Days to 10 mm Actual” value ([1]; CIPC 4.7 mg kg-1 fresh wt alone (3D2 0), Table 1 study) was 80 days, the “Days to 10 mm Actual” value ([1]; CIPC 7.3 mg kg-1 fresh wt alone (3D2 0), Table 1 study) was 99 days and the “Days to 10 mm Actual” value ([1]; CIPC 10 mg kg-1 fresh wt alone (3D2 0), Table 1 study) was 95 days.
In the case of `CCCCCCCC(C)=O` [2-nonanone], the “Sprout growth (fresh weight) as percentage of non-treated tubers” value ([4]; 0.5 and 0.75 mmol/kg 2-nonanone, averaged) is reported as 58%.
With `CCCCCC=CC(C)=O` [3N2, 3-nonen-2-one] the “Sprout growth (fresh weight) as percentage of non-treated tubers” value ([4]; 0.75% 3N2 applied alone) was 9%.
